{
  "source": "patent US10681909B2",
  "about": "“Herbicidal triazoles” (FMC Corporation, priority 2014, dated 2020)",
  "key": {"morningglory [1]": {"test_system": "morningglory", "experiment": "Test A postemergence", "format": "in vivo, Ipomoea spp.", "details": "Ipomoea, post-emergence, 240 h, 0 to 100 scale (0 no effect, 100 complete control), approx. 10 d, read-out: Plant response rating, Morningglory", "procedure,_shortened": "(§1)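 For preemergence, seeds were sown in a loam soil-sand blend and given a directed soil spray of test chemical in a non-phytotoxic solvent mixture with surfactant. For postemergence, plants in pots of the same blend were sprayed with the same formulation at the one- to two-leaf stage, 2 to 10 cm tall.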"}, "barnyardgrass": {"test_system": "barnyardgrass", "experiment": "Test C preemergence", "format": "in vivo, Echinochloa crus-galli", "details": "for Plant response rating (scale of 0 to 100 where 0 is no effect and 100 is complete control): Barnyardgrass, preemergence; for Barnyardgrass plant response rating (0 to 100): Preemergence, visual rating after 13 to 15 d", "procedure,_shortened": "(§2)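 Surfactant-containing, non-phytotoxic solvent formulations of each compound were applied either preemergence to seeds in a loam soil–sand blend or postemergence to plants 2 to 18 cm tall (1- to 4-leaf stage). Postemergence plants were grown in peat moss–vermiculite medium.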"}, "kochia": {"test_system": "kochia", "experiment": "Test D postemergence", "format": "in vivo, Kochia scoparia", "details": "scale 0 to 100", "source_text": "(§3) Seeds of plant species selected from bluegrass (annual bluegrass, Poa annua), blackgrass (Alopecurus myosuroides), canarygrass (Phalaris minor), chickweed (common chickweed, Stellaria media), galium (catchweed bedstraw, Galium aparine), bromegrass, down (downy bromegrass, Bromus tectorum), Russian thistle (Salsola kali), field poppy (Papaver rhoeas), field violet (Viola arvensis), foxtail, green (green foxtail, Setaria viridis), deadnettle (henbit deadnettle, Lamium amplexicaule), ryegrass, Ital. (Italian ryegrass, Lolium multiflorum), kochia (Kochia scoparia), lambsquarters (Chenopodium album), oilseed rape (Brassica napus), pigweed (Amaranthus retroflexus), chamomile (scentless chamomile, Matricaria inodora), speedwell (bird's-eye speedwell, Veronica persica), barley, spring (spring barley, Hordeum vulgare), wheat, spring (spring wheat, Triticum aestivum), buckwheat, wild (wild buckwheat, Polygonum convolvulus), wild mustard (Sinapis arvensis), oat, wild (wild oat, Avena fatua), radish, wild (wild radish, Raphanus raphanistrum), […]), barley, winter (winter barley, Hordeum vulgare), and wheat, winter (winter wheat, Triticum aestivum) were planted into a silt loam soil and treated preemergence with test chemicals formulated in a non-phytotoxic solvent mixture which included a surfactant. At the same time, these species were planted in pots containing Sunshine Redi-Earth® planting medium comprising spaghnum peat moss, vermiculite, starter nutrients and dolomitic limestone and treated with postemergence applications of the test chemicals formulated in the same manner. Plants ranged in height from 2 to 18 cm (1- to 4-leaf stage). Treated plants and controls were maintained in a controlled growth environment for 14 to 21 d after which time all species were compared to controls and visually evaluated. […] A dash (-) response means no test result."}, "field poppy": {"test_system": "field poppy", "experiment": "Test D postemergence", "format": "in vivo, Papaver rhoeas", "details": "scale 0 to 100", "source_text": "as §3"}, "lambsquarters": {"test_system": "lambsquarters", "experiment": "Test C preemergence", "format": "in vivo, Chenopodium album", "details": "for Plant response rating (scale of 0 to 100 where 0 is no effect and 100 is complete control): Lambsquarters, preemergence; for Lambsquarters plant response rating (0 to 100): Preemergence, visual rating after 13 to 15 d", "procedure,_shortened": "as §2"}, "oilseed rape": {"test_system": "oilseed rape", "experiment": "Test D postemergence", "format": "in vivo, Brassica napus", "details": "scale 0 to 100", "source_text": "as §3"}, "velvetleaf": {"test_system": "velvetleaf", "experiment": "Test C preemergence", "format": "in vivo, Abutilon theophrasti", "details": "for Velvetleaf plant response rating (0 to 100): Preemergence, visual rating after 13 to 15 d", "procedure,_shortened": "as §2"}, "foxtail, green": {"test_system": "foxtail, green", "experiment": "Test D preemergence", "format": "in vivo, Setaria viridis", "details": "scale 0 to 100", "source_text": "as §3"}, "crabgrass, large [2]": {"test_system": "crabgrass, large", "experiment": "Test A preemergence", "format": "in vivo, Digitaria sanguinalis", "details": "Digitaria sanguinalis, pre-emergence, 240 h, 0 to 100 scale (0 no effect, 100 complete control), read-out: Plant response rating, Crabgrass, Large", "procedure,_shortened": "as §1"}, "morningglory [3]": {"test_system": "morningglory", "experiment": "Test C preemergence", "format": "in vivo, Ipomoea coccinea", "details": "for Plant response rating (scale of 0 to 100 where 0 is no effect and 100 is complete control): Morningglory, preemergence; for Morningglory plant response rating (0 to 100): Preemergence, visual rating after 13 to 15 d", "procedure,_shortened": "as §2"}, "crabgrass, large [4]": {"test_system": "crabgrass, large", "experiment": "Test C preemergence", "format": "in vivo, Digitaria sanguinalis", "details": "for Plant response rating (scale of 0 to 100 where 0 is no effect and 100 is complete control): Crabgrass, Large, preemergence; for Crabgrass, Large plant response rating (0 to 100): Preemergence, visual rating after 13 to 15 d", "procedure,_shortened": "as §2"}},
  "data": [
    {"molecule": "CCOc1nc(-c2ccc(F)cc2)nn1Cc1ccnc(C(F)(F)F)c1", "note": "[Compound 8, 4-[[5-ethoxy-3-(4-fluorophenyl)-1H-1,2,4-triazol-1-yl]methyl]-2-(trifluoromethyl)pyridine]", "values": [
      {"measurement": "pest or weed control at 125 g/ha", "setting": "morningglory [1]; 125 g ai/ha", "result": 90, "unit": "%"},
      {"measurement": "pest or weed control at 500 g/ha", "setting": "morningglory [1]; 500 g ai/ha", "result": 100, "unit": "%"},
      {"measurement": "Plant response rating (scale of 0 to 100 where 0 is no effect and 100 is complete control)", "setting": "barnyardgrass; 125 g ai/ha", "result": 100},
      {"measurement": "Plant response rating (scale of 0 to 100 where 0 is no effect and 100 is complete control)", "setting": "barnyardgrass; 250 g ai/ha", "result": 100},
      {"measurement": "Barnyardgrass plant response rating (0 to 100)", "setting": "barnyardgrass; 31 g ai/ha", "result": 98},
      {"measurement": "Barnyardgrass plant response rating (0 to 100)", "setting": "barnyardgrass; 62 g ai/ha", "result": 100},
      {"measurement": "Plant response rating: Kochia", "setting": "kochia; 31 g ai/ha", "result": 75},
      {"measurement": "Plant response rating: Kochia", "setting": "kochia; 62 g ai/ha", "result": 80},
      {"measurement": "Plant response rating: Kochia", "setting": "kochia; 125 g ai/ha", "result": 85},
      {"measurement": "Plant response rating: Kochia", "setting": "kochia; 250 g ai/ha", "result": 80},
      {"measurement": "Plant response rating: Field Poppy", "setting": "field poppy; 31 g ai/ha", "result": 80},
      {"measurement": "Plant response rating: Field Poppy", "setting": "field poppy; 62 g ai/ha", "result": 90},
      {"measurement": "Plant response rating: Field Poppy", "setting": "field poppy; 125 g ai/ha", "result": 95},
      {"measurement": "Plant response rating: Field Poppy", "setting": "field poppy; 250 g ai/ha", "result": 100},
      {"measurement": "Plant response rating (scale of 0 to 100 where 0 is no effect and 100 is complete control)", "setting": "lambsquarters; 125 g ai/ha", "result": 100},
      {"measurement": "Plant response rating (scale of 0 to 100 where 0 is no effect and 100 is complete control)", "setting": "lambsquarters; 250 g ai/ha", "result": 100},
      {"measurement": "Lambsquarters plant response rating (0 to 100)", "setting": "lambsquarters; 31 g ai/ha", "result": 95},
      {"measurement": "Lambsquarters plant response rating (0 to 100)", "setting": "lambsquarters; 62 g ai/ha", "result": 98},
      {"measurement": "Plant response rating: Oilseed Rape", "setting": "oilseed rape; 31 g ai/ha", "result": 70},
      {"measurement": "Plant response rating: Oilseed Rape", "setting": "oilseed rape; 62 g ai/ha", "result": 75},
      {"measurement": "Plant response rating: Oilseed Rape", "setting": "oilseed rape; 125 g ai/ha", "result": 100},
      {"measurement": "Plant response rating: Oilseed Rape", "setting": "oilseed rape; 250 g ai/ha", "result": 100},
      {"measurement": "Velvetleaf plant response rating (0 to 100)", "setting": "velvetleaf; 31 g ai/ha", "result": 70},
      {"measurement": "Velvetleaf plant response rating (0 to 100)", "setting": "velvetleaf; 62 g ai/ha", "result": 85},
      {"measurement": "Plant response rating (scale of 0 to 100 where 0 is no effect and 100 is complete control)", "setting": "velvetleaf; Velvetleaf, preemergence, 250 g ai/ha", "result": 100},
      {"measurement": "Plant response rating: Foxtail, Green", "setting": "foxtail, green; 62 g ai/ha", "result": 100},
      {"measurement": "Plant response rating: Foxtail, Green", "setting": "foxtail, green; 125 g ai/ha", "result": 100},
      {"measurement": "Plant response rating: Foxtail, Green", "setting": "foxtail, green; 250 g ai/ha", "result": 100},
      {"measurement": "pest or weed control at 125 g/ha", "setting": "crabgrass, large [2]; 125 g ai/ha", "result": 100, "unit": "%"},
      {"measurement": "pest or weed control at 500 g/ha", "setting": "crabgrass, large [2]; 500 g ai/ha, approx. 10 d", "result": 100, "unit": "%"},
      {"measurement": "Plant response rating (scale of 0 to 100 where 0 is no effect and 100 is complete control)", "setting": "morningglory [3]; 125 g ai/ha", "result": 98},
      {"measurement": "Plant response rating (scale of 0 to 100 where 0 is no effect and 100 is complete control)", "setting": "morningglory [3]; 250 g ai/ha", "result": 100},
      {"measurement": "Morningglory plant response rating (0 to 100)", "setting": "morningglory [3]; 31 g ai/ha", "result": 85},
      {"measurement": "Morningglory plant response rating (0 to 100)", "setting": "morningglory [3]; 62 g ai/ha", "result": 100},
      {"measurement": "Plant response rating (scale of 0 to 100 where 0 is no effect and 100 is complete control)", "setting": "crabgrass, large [4]; 125 g ai/ha", "result": 100},
      {"measurement": "Plant response rating (scale of 0 to 100 where 0 is no effect and 100 is complete control)", "setting": "crabgrass, large [4]; 250 g ai/ha", "result": 100},
      {"measurement": "Crabgrass, Large plant response rating (0 to 100)", "setting": "crabgrass, large [4]; 31 g ai/ha", "result": 100},
      {"measurement": "Crabgrass, Large plant response rating (0 to 100)", "setting": "crabgrass, large [4]; 62 g ai/ha", "result": 100}
    ]}
  ]
}
